Laboratory results published in patent US8034939B2, “Isoindole derivatives, compositions containing same, preparation thereof and pharmaceutical uses thereof in particular as inhibitors of chaperone protein Hsp90 activities” (Aventis Pharma S.A.., priority 2005, dated 2011).

Molecular target: Hsp82 (Saccharomyces cerevisiae, UniProt P02829)
Assay: Hsp82 ATPase activity, PK/LDH coupled enzymatic assay (also malachite green method)
Format: biochemical
Conditions: 1 μM Hsp82, 250 μM ATP, 37° C.
Procedure: The […] released during the hydrolysis of ATP by the ATPase activity of Hsp82 is quantified by the malachite green method. In the presence of this reagent, formation of the inorganic phosphate-molybdate-malachite green complex occurs, which complex absorbs at a wavelength of 620 nm. The products to be evaluated are incubated in a reaction volume of 30 μl, in the presence of 1 μM Hsp82 and of […] of substrate (ATP) in a buffer composed of 50 mM Hepes-NaOH (pH 7.5), 1 mM DTT, 5 mM MgCl2 and 50 mM KCl at 37° C. for 60 minutes. In parallel, a range of inorganic phosphate between 1 and 40 μM is prepared in the same buffer. […] After incubation at ambient temperature for 20 minutes, the absorbance of the various wells is measured using a microplate reader at 620 nm. The concentration of […] of each sample is then calculated from the standard curve. The ATPase activity of Hsp82 is expressed as concentration of inorganic phosphate produced in 60 minutes. The effect of the various products tested is expressed as percentage inhibition of the ATPase activity. […]
The products tested are incubated in a reaction volume of 100 μl of buffer composed of 100 mM Hepes-NaOH (pH 7.5), 5 mM MgCl2, 1 mM DTT, 150 mM KCl, 0.3 mM NADH, 2.5 mM PEP and 250 μM ATP. […] The enzymatic activity of Hsp82 is then measured, continuously, in a microplate reader, at 37° C., at the wavelength of 340 nm. […]

Hsp82, sequence (P02829 whole entry): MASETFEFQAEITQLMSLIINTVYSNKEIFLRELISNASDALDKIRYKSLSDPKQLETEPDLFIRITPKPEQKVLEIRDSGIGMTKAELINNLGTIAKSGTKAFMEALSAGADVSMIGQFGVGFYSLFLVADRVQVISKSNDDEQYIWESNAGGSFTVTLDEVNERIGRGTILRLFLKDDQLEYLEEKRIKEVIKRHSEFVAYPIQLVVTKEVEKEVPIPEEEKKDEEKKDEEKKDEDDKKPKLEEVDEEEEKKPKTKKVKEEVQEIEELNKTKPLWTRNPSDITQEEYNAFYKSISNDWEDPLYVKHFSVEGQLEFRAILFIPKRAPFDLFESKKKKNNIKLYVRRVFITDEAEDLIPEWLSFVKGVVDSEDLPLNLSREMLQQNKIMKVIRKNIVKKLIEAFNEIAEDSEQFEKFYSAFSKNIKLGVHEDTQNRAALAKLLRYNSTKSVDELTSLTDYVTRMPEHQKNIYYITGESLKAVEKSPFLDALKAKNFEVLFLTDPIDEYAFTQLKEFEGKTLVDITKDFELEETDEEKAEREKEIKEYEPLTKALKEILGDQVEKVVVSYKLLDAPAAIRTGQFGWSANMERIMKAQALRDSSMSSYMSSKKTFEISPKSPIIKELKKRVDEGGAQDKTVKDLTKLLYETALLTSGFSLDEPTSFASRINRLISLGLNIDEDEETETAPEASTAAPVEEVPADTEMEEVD

IC50 [µM]	Compound
1 to 10	O=C1c2ccccc2C2=C(c3nc4ccncc4[nH]3)CCCN12 [Example 1, 1-{3-H-imidazo[4,5-c]pyridin-2-yl}-3,4-dihydro-2H-pyrido[2,1-a]-isoindole-6-one]
10 to 100	O=C1c2ccccc2C2=C(c3nc4ccc(O)cc4[nH]3)CCCN12 [Example 2, 1-{1-H-6-hydroxybenzimidazol-2-yl}-3,4-dihydro-2H-pyrido[2,1-a]isoindole-6-one]
